For one data set, the system named is Marek's disease. The following applies: cited from earlier work.
In the next data set the test system is methemoglobin. On the set-up: species or system mice. The following applies: mouse, in vivo.
The subject of the next data set is lymphocyte. Nature of the data set: lymphocyte transformation. The format is cell-based.
A further data set concerns mice. Nature of the data set: acute toxicity as measured by LD50 in mice. The format is in vivo. The following applies: compared with dapsone.
Data set [1] deals with mammalian macrophage membrane. Nature of the data set: incorporation of choline into the mammalian macrophage membrane. The format is cell-based.
For data set [2], the system named is chick peritoneal macrophages. The following applies: Shigeura et al., 1975; cited from earlier work.
The conditions of data set [3]: cited from earlier work; for ability to alter the course of the disease / immune complexes as measured by rheumatoid factor titers: rheumatoid arthritis.

Take `NC(=O)Nc1ccc(S(=O)(=O)c2ccc(N)cc2)cc1` [1-[4-(4-sulfanilyl)phenyl]urea]: in the data set with Marek's disease, the “lesion incidence of poultry exposed to Marek's disease” value was “decreasing lesion incidence” and the “mortality of poultry exposed to Marek's disease” value is “reducing mortality”. Moreover, the methemoglobin formation entry in the data set on methemoglobin was “significantly less active in producing this toxic syndrome”. Besides, the lymphocyte transformation result in the data set with lymphocyte is given as “effect lymphocyte transformation”. Further, the “acute toxicity as measured by LD50” value in the data set on mice is “less acutely toxic than dapsone”. For the same compound, the “incorporation of choline into the mammalian macrophage membrane” value in data set [1] is given as “inhibit the incorporation”. The “incorporation of chloline in chick peritoneal macrophages” value in data set [2] is listed as “inhibit the incorporation”.
In the case of `CC(C)(S)[C@@H](N)C(=O)O` [D-penicillamine], in data set [3], the “ability to alter the course of the disease” value (“ability to alter the course” for short) was “can alter the course of the disease” and the “immune complexes as measured by rheumatoid factor titers” value was “reducing the immune complexes”.
Regarding `Nc1ccc(S(=O)(=O)c2ccc(N)cc2)cc1` [Dapsone, 4,4'-diaminodiphenylsulfone], the “effectiveness in treating rheumatoid arthritis” value in data set [3] (McConkey et al., 1976) is recorded as “effective in treating rheumatoid arthritis”. Besides, in the data set with lymphocyte, the lymphocyte transformation result is given as “effect lymphocyte transformation”. In addition, the “incorporation of choline into the mammalian macrophage membrane” value in data set [1] is “inhibit the incorporation”.
Regarding `CC(=O)Oc1ccccc1C(=O)O` [aspirin], in data set [3] (in vivo), the “symptomatic relief of the acute syndrome characterizing rheumatoid arthritis” value is “effective in providing symptomatic relief of the acute syndrome”. Further, the “ability to alter the course” value in data set [3] is given as “unable to alter the course of the disease”.
gold: in data set [3], the “ability to alter the course” value is listed as “can alter the course of the disease” and the “immune complexes as measured by rheumatoid factor titers” value was “reducing the immune complexes”.
